Measured values reported in US20230219886A1, “NOVEL SELENO-NSAID ANALOGS AND USES THEREOF” (THE PENN STATE RESEARCH FOUNDATION, priority 2020, published 2023).
Like-named read-outs stand apart in the source and are kept apart here.

Key:
HT-29 (CRC) = test: MTT cell viability assay, HT-29; conditions: for IC50 / viability at 5 µM / viability at 25 µM / viability at 50 µM / GI50: Homo sapiens; for viability at 5 µM / viability at 25 µM / viability at 50 µM: read-out: cell viability
Method: (§1) Cell Culture Conditions. The cell lines were obtained from the American Type Culture Collection (ATCC). PANC-1 and Caco-2 cell lines were maintained in DMEM medium (Gibco); HT-29, HCT-116 and RKO cells were maintained in McCoy's 5A medium (Gibco); and DU-145 and H1299 cells were maintained in RPMI 1640 medium (Gibco), supplemented with 10% fetal bovine serum (FBS; Gibco) and 1% antibiotics (10.00 units/mL penicillin and 10.00 mg/mL streptomycin; Gibco). Cells were preserved in tissue culture flasks at 37° C. and 5% CO2. Culture medium was replaced every three days.
(§2) Cell Viability Assay. The effect of each compound on cell viability was tested using the MTT assay (81). Briefly, 9000 cells/well were grown in 96-well plates for 12 h. Then these cells were incubated with either DMSO (control) or nine different concentration between 0.01-50 μM of the test compounds for 24, 48, and 72 h. Three hours before the termination point, 20 μL of MTT were added to measure cellular viability. The resultant formazan crystals were dissolved in 50 μL of DMSO, and absorbance was measured at 570 nm and 630 nm wavelengths. IC50, GI50, TGI and LC50 values were calculated using OriginPro 8.5.1.
(§3) Evaluation of the antiproliferative activities of the novel molecules. […] These four cell lines were treated with each compound at three concentrations (5, 25 and 50 μM) for 48 h.

HCT-116 CRC cells = test: MTT cell viability assay, HCT-116; format: cell-based, human; conditions: Homo sapiens
Method: as §1, §2

CACO-2 CRC cells = test: cells; conditions: for IC50: Homo sapiens
Method: as §1, §2

RKO CRC cells = test: cells; conditions: Homo sapiens
Method: as §1, §2

[1] = system: PANC-1 (pancreatic carcinoma); test: MTT cell viability assay, Panc-1; conditions: Homo sapiens, PANC-1, 48 h, read-out: cell viability
Method: as §1, §2, §3

[2] = system: DU-145 (prostate carcinoma); test: MTT cell viability assay, DU-145; conditions: Homo sapiens, DU-145, 48 h, read-out: cell viability
Method: as §1, §2, §3

H1299 (lung carcinoma) = test: MTT cell viability assay, H1299; conditions: Homo sapiens, NCI-H1299, 48 h, read-out: cell viability
Method: as §1, §2, §3

SMILES | IC50 (HT-29 (CRC); HT-29, 24 h) [µM] | IC50 (HT-29 (CRC); HT-29, 48 h) [µM] | IC50 (HT-29 (CRC); HT-29, 72 h) [µM] | IC50 (HCT-116 CRC cells; HCT-116, 24 h, read-out: IC50) [µM] | IC50 (HCT-116 CRC cells; HCT-116, 48 h, read-out: IC50) [µM] | IC50 (HCT-116 CRC cells; HCT-116, 72 h, read-out: IC50) [µM] | IC50 (CACO-2 CRC cells; Caco-2, 24 h) [µM] | IC50 (CACO-2 CRC cells; Caco-2, 48 h) [µM] | IC50 (CACO-2 CRC cells; Caco-2, 72 h) [µM] | IC50 (RKO CRC cells; 24 h) [µM] | IC50 (RKO CRC cells; 48 h) [µM] | IC50 (RKO CRC cells; 72 h) [µM] | viability at 5 µM [1] [%] | viability at 25 µM [1] [%] | viability at 50 µM [1] [%] | viability at 5 µM (HT-29 (CRC); HT-29, 48 h) [%] | viability at 25 µM (HT-29 (CRC); HT-29, 48 h) [%] | viability at 50 µM (HT-29 (CRC); HT-29, 48 h) [%] | viability at 5 µM [2] [%] | viability at 25 µM [2] [%] | other results
CC[Se]C(=O)Cc1c(C)n(C(=O)c2ccc(Cl)cc2)c2ccc(OC)cc12 [Compound 5b, Se-ethyl 2-(1-(4-chlorobenzoyl)-5-methoxy-2-methyl-1H-indol-3-yl)ethane-selenoate] | > 50 | 4.9 ± 0.3 | 4.9 ± 0.1 | > 50 | 6.3 ± 1.6 | 8.2 ± 1.7 | > 50 | > 50 | > 50 | > 50 | 30.8 ± 3.5 | 33.3 ± 16.9 | – | – | – | – | – | – | – | – | effect on CACO-2 viability (CACO-2 CRC cells): no effect
COc1ccc2c(c1)c(CC(=O)[Se]Cc1ccccc1)c(C)n2C(=O)c1ccc(Cl)cc1 [Compound 5c, Se-benzyl 2-(1-(4-chlorobenzoyl)-5-methoxy-2-methyl-1H-indol-3-yl)ethane-selenoate] | > 50 | 4.2 ± 0.5 | 4 ± 1 | – | – | – | > 50 | > 50 | > 50 | > 50 | 26.2 ± 4.6 | 11.5 ± 0.9 | – | – | – | – | – | – | – | – | IC50 (HCT-116 CRC cells; HCT-116, 24 h): > 50 µM; IC50 (HCT-116 CRC cells; HCT-116, 48 h): 14 ± 6.6 µM; IC50 (HCT-116 CRC cells; HCT-116, 72 h): 5.5 ± 1.2 µM
CC[Se]C(=O)CC1=C(C)/C(=C/c2ccc([S+](C)[O-])cc2)c2ccc(F)cc21 (centres unmarked) [Compound 6b, Se-ethyl (Z)-2-(5-fluoro-2-methyl-1-(4-(methylsulfinyl)benzylidene)-1H-inden-3-yl)ethaneselenoate] | 10.9 ± 1.4 | 4.9 ± 0.2 | 5 ± 0.1 | > 50 | 6.2 ± 0.9 | 7.2 ± 1 | > 50 | > 50 | > 50 | > 50 | 41.8 ± 13.8 | 12.4 ± 0.5 | – | – | – | – | – | – | – | – | effect on CACO-2 viability (CACO-2 CRC cells): no effect
CC1=C(CC(=O)[Se]Cc2ccccc2)c2cc(F)ccc2/C1=C\c1ccc([S+](C)[O-])cc1 (centres unmarked) [Compound 6c, Se-benzyl (Z)-2-(5-fluoro-2-methyl-1-(4-(methylsulfinyl)benzylidene)-1H-inden-3-yl)ethaneselenoate] | > 50 | 5.1 ± 0.1 | 5.2 ± 0.2 | – | – | – | > 50 | 11.4 ± 1.6 | 14.2 ± 3.9 | > 50 | > 50 | 35.8 ± 5.9 | – | – | – | – | – | – | – | – | IC50 (HCT-116 CRC cells; HCT-116, 24 h): > 50 µM; IC50 (HCT-116 CRC cells; HCT-116, 48 h): 7.8 ± 1.8 µM; IC50 (HCT-116 CRC cells; HCT-116, 72 h): 7 ± 0.8 µM
O=C(O)c1cc(-c2ccc(F)cc2F)ccc1O [Dfl, diflunisal, reference compound] | – | – | – | – | – | – | – | – | – | – | – | – | 77.9 ± 5.4 | 75.5 ± 6.9 | 68.5 ± 9.3 | 93.2 ± 5.7 | 82.7 ± 9.8 | 74.7 ± 2 | 71 ± 6.9 | 71.5 ± 9.1 | viability at 50 µM [2]: 78.9 ± 6.4%; viability at 5 µM (H1299 (lung carcinoma)): 85.2 ± 3.6%; viability at 25 µM (H1299 (lung carcinoma)): 94.3 ± 3.9%; viability at 50 µM (H1299 (lung carcinoma)): 88.7 ± 7.8%
COc1ccc2c(c1)c(CC(=O)O)c(C)n2C(=O)c1ccc(Cl)cc1 [Inn, indomethacin, reference compound] | > 50 | > 50 | > 50 | > 50 | > 50 | > 50 | > 50 | > 50 | > 50 | > 50 | > 50 | > 50 | 94.1 ± 8.3 | 85.9 ± 10.5 | 83.2 ± 6.3 | 100 ± 8.4 | 99.8 ± 14.2 | 98.3 ± 13.4 | 89.6 ± 12.3 | 97.6 ± 21 | TGI (HT-29 (CRC); HT-29, 24 h): >50 µM; TGI (HT-29 (CRC); HT-29, 48 h): >50 µM; TGI (HT-29 (CRC); HT-29, 72 h): >50 µM; GI50 (HT-29 (CRC); HT-29, 24 h): > 50 µM; GI50 (HT-29 (CRC); HT-29, 48 h): > 50 µM; GI50 (HT-29 (CRC); HT-29, 72 h): > 50 µM; viability at 50 µM [2]: 96.2 ± 18.5%; viability at 5 µM (H1299 (lung carcinoma)): 76 ± 23.7%; viability at 25 µM (H1299 (lung carcinoma)): 70.4 ± 19.8%; viability at 50 µM (H1299 (lung carcinoma)): 66.2 ± 14%
Cc1cccc(Nc2ccccc2C(=O)O)c1C [Mf, mefenamic acid, reference compound] | – | – | – | – | – | – | – | – | – | – | – | – | 72.4 ± 5.6 | 61.9 ± 10.9 | 65.9 ± 5.1 | 91.9 ± 4.9 | 75.7 ± 4.1 | 64.9 ± 4.5 | 100 | 100 | viability at 50 µM [2]: 100%; viability at 5 µM (H1299 (lung carcinoma)): 71.4 ± 15.5%; viability at 25 µM (H1299 (lung carcinoma)): 44.9 ± 1.4%; viability at 50 µM (H1299 (lung carcinoma)): 39.4 ± 1.3%
